US7192722B2, “Phenethanolamine-derived haptens, immunogens, antibodies and conjugates” (Randox Laboratories, priority 2004, dated 2007)
≈ marks a conversion by molar mass, not a printed value. Where “and” joins values, the source holds several entries; their conditions need not be identical. Equal values may be shown once.

Columns and labels:
[1] = system: IgG fraction of the antiserum raised to immunogen C (hapten C-BSA); assay: Competitive ELISA for ractopamine, Example 22 b): antiserum to immunogen C, conjugate C (hapten C-HRP); format: binding, sheep; conditions: for % CR: cross-reactivity relative to ractopamine = 100%
Protocol: (§1) An aqueous solution of each immunogen was formulated with Freund's Complete Adjuvant (FCA) to form an emulsion consisting of 2 mg/ml immunogen in 50% (v/v) FCA. Three sheep were immunised with this emulsion (1° immunisation), 0.25 ml being subcutaneously injected at each of four sites in the flank of each animal. Subsequent immunizations (boosts) contained 1 mg/ml immunogen. All boosts were emulsified in 50% (v/v) Freund's Incomplete Adjuvant (FIA) and were administered in the same manner as the 1° immunisation, at monthly intervals for 1 year. Blood sampling took place 7 to 14 days after each boost. Each sample was processed to produce antiserum, which was further purified by caprylic acid and ammonium sulfate precipitation to yield an immunoglobulin G (IgG) fraction.
The same definitions apply for A450, B, B0 and IC50.
(§2) Employing each series of standards in the ractopamine competitive ELISAs, calibration curves were generated and these were used to determine the cross-reactivity of each immunoassay with these substances.

[2] = system: IgG fraction of the antiserum raised to immunogen A (hapten A-BSA); assay: Competitive ELISA for ractopamine, Example 22 a): antiserum to immunogen A, conjugate A (hapten A-HRP); format: binding, sheep; conditions: for % CR: cross-reactivity relative to ractopamine = 100%
Protocol: as §1
The appropriate antibody coating dilution was determined using standard ELISA checkerboard techniques. The plate was incubated for 2 hours at 37° C., washed 4 times with Tris buffered saline containing Tween 20 (TBST) and tapped dry. Standard solutions of ractopamine were prepared in TBST at 0, 0.05, 0.1, 0.5, 1, and 5 ng/ml, and 50 μl of each was added to the appropriate wells. […] The appropriate dilution of conjugate was also determined using standard ELISA checkerboard techniques. The plate was incubated at 37° C. for 2 hours. Excess unbound conjugate was removed by washing 6 times over a 10 minute period with TBST. 125 μl of tetramethylbenzidine (TMB) substrate solution was added to each well of the plate that was then incubated for 15 to 20 minutes in the dark at room temperature. The reaction was terminated by addition of 125 μl 0.2M H2SO4 to each well. The absorbance was then measured at 450 nm using a microtiter plate reader.
as §2

[3] = system: Shelver polyclonal antiserum (ractopamine-hemiglutarate-KLH); conditions: Shelver pAb, cited from earlier work; for % CR: relative to ractopamine = 100%
[4] = system: Shelver monoclonal antibody (5G10); conditions: Shelver mAb, cited from earlier work; for % CR: relative to ractopamine = 100%
[5] = system: IgG fraction of the antiserum raised to immunogen E (hapten E-BSA); assay: Competitive ELISA for ritodrine, Example 25: antiserum to immunogen E, conjugate E (hapten E-HRP); format: binding; conditions: for % CR: cross-reactivity relative to ritodrine = 100%
[6] = system: IgG fraction of the antiserum raised to immunogen D (hapten D-BSA); assay: Competitive ELISA for isoxsuprine, Example 24: antiserum to immunogen D, conjugate D (hapten D-HRP); format: binding; conditions: for % CR: cross-reactivity relative to isoxsuprine = 100%
[7] = system: Haasnoot antibody derived from a fenoterol derivative; conditions: cited from earlier work

Row | Molecule | % CR [1] | % CR [2] | IC50 CR [3] | % CR [3] | IC50 CR [4] | % CR [4] | also measured
1 | CC(C)(C)NCC(O)c1ccccc1Cl (stereo not drawn) [Tulobuterol] | <0.05% | <0.16% | – | – | – | – | –
2 | CC(C)(C)NCC(O)c1cc(O)cc(O)c1 (stereo not drawn) [Terbutaline] | <0.01% | <0.16% | – | – | – | – | –
3 | OCc1cc(C(O)CNCCCCCCOCCCCc2ccccc2)ccc1O (stereo not drawn) [Salmeterol Xinafoate] | <0.5% | <0.16% | 1,800 ng/ml | 0.2% | 1519 ng/mL (≈ 3.66 µM) | 0.2% | –
4 | CC(C)(C)NCC(O)c1ccc(O)c(CO)c1 (stereo not drawn) [Salbutamol] | <0.01% | <0.16% | 79,000 ng/ml | <0.01% | – | <0.1% | –
5 | CC(C)(C)NCC(O)c1cc(Cl)c(N)c(Cl)c1 (stereo not drawn) [Clenbuterol] | <0.01% | <0.16% | >100,000 ng/ml | <0.01% | – | <0.1% | –
6 | CC(C)NC[C@H](O)c1ccc(O)c(O)c1 [(−) Isoproterenol] | <0.01% | <0.16% | – | – | – | – | –
7 | CC(COc1ccccc1)NC(C)C(O)c1ccc(O)cc1 (stereo not drawn) [Isoxsuprine] | <0.6% | <0.16% | 6,200 ng/ml | 0.1% | 1,391 ng/ml | 0.2% | % CR [5]: 20.2%; % CR [6]: 100%; % B/B0 ([6]; isoxsuprine 0.5 ng/ml): 31.6%; % B/B0 ([6]; isoxsuprine 1 ng/ml): 17.0%; % B/B0 ([6]; isoxsuprine 5 ng/ml): 6.7%; % B/B0 ([6]; isoxsuprine 10 ng/ml): 4.9%; % B/B0 ([6]; isoxsuprine 50 ng/ml): 1.5%; % B/B0 ([6]; isoxsuprine 100 ng/ml): 1.3%; % B/B0 ([6]; isoxsuprine 200 ng/ml): 0.9%
8 | CC(C)NCC(O)c1cc(O)cc(O)c1 (stereo not drawn) [Metaproterenol] | <0.01% | <0.16% | >100,000 ng/ml | <0.01% | – | – | –
9 | CC(CCc1ccc(O)cc1)NCC(O)c1ccc(O)cc1 (stereo not drawn) [Ractopamine] | 100% | 100% | 4.2 ng/mL (≈ 0.0139 µM) | 100% | 2.69 ng/mL (≈ 0.00893 µM) | 100% | % B/B0 ([1]; ractopamine 0.025 ng/ml): 84%; % B/B0 ([1]; ractopamine 0.1 ng/ml): 65%; % B/B0 ([1]; ractopamine 0.25 ng/ml): 46%; % B/B0 ([1]; ractopamine 0.5 ng/ml): 34%; % B/B0 ([1]; ractopamine 1 ng/ml): 24%; % B/B0 ([2]; ractopamine 0.05 ng/ml): 53.5%; % B/B0 ([2]; ractopamine 0.1 ng/ml): 49.5%; % B/B0 ([2]; ractopamine 0.5 ng/ml): 23.7%; % B/B0 ([2]; ractopamine 1 ng/ml): 16.9%; % B/B0 ([2]; ractopamine 5 ng/ml): 6.33%; cross-reactivity [7]: 20%; % CR [5]: <0.5%; % CR [6]: <0.1%
10 | CC(C)(C)NCC(O)c1cc(Cl)c(N)c(C(F)(F)F)c1 (stereo not drawn) [Mabuterol] | <0.01% | <0.16% | – | – | – | – | –
11 | CC(C)NCC(O)c1ccc(N)c(C#N)c1 (stereo not drawn) [Cimaterol] | <0.01% | <0.16% | – | – | – | – | –
12 | CC(C)NCC(O)c1ccc(O)c(O)c1 (racemic) [DL-Isoproterenol] | <0.5% | <0.16% | >100,000 ng/ml | <0.01% | – | – | –
13 | Methyl Clenbuterol | <0.05% | <0.16% | – | – | – | – | –
14 | CCCCNCC(O)c1ccc(O)cc1 (stereo not drawn) [Bamethane] | <0.01% | <0.16% | 2,900 ng/ml | 0.1% | 831 ng/mL (≈ 3.97 µM) | 0.3% | –
15 | NCCc1ccc(O)c(O)c1 [Dopamine] | <0.01% | <0.16% | – | – | – | – | –
16 | CC(NCCc1ccc(O)cc1)C(O)c1ccc(O)cc1 (stereo not drawn) [Ritodrine] | <0.5% | <0.16% | 577 ng/mL (≈ 2.01 µM) | 0.8% | 73.8 ng/mL (≈ 0.257 µM) | 3.6% | % CR [5]: 100%; % B/B0 ([5]; ritodrine 1 ng/ml): 92.0%; % B/B0 ([5]; ritodrine 5 ng/ml): 82.3%; % B/B0 ([5]; ritodrine 10 ng/ml): 80.2%; % B/B0 ([5]; ritodrine 50 ng/ml): 64.7%; % B/B0 ([5]; ritodrine 100 ng/ml): 55.9%; % B/B0 ([5]; ritodrine 500 ng/ml): 30.0%; % B/B0 ([5]; ritodrine 1000 ng/ml): 22.6%; % CR [6]: <0.1%
17 | CC(CCc1ccc(O)cc1)NCCc1ccc(O)c(O)c1 (stereo not drawn) [Dobutamine] | <0.8% | 0.186% | 12.7 ng/mL (≈ 0.0421 µM) | 33% | 50.3 ng/mL (≈ 0.167 µM) | 5.3% | % CR ([1]; listed as dobutamine): < 0.8%; % CR ([2]; listed as dobutamine): 0.186% and < 0.8%; % CR [5]: <5.0%; % CR [6]: <0.1%
18 | CC(C)(C)NCC(O)c1ccc(O)c(CO)n1 (stereo not drawn) [Pirbuterol] | <0.05% | <0.16% | – | – | – | – | –
19 | CC(Cc1ccc(O)cc1)NCC(O)c1cc(O)cc(O)c1 (stereo not drawn) [Fenoterol] | <0.05% | <0.16% | 310 ng/mL (≈ 1.02 µM) | 1.3% | 2,682 ng/ml | 0.1% | –
